Data taken from patent US20260216057A1, “PHARMACEUTICAL COMPOSITIONS FOR HERPES VIRUS” (priority 2022, published 2026).

Test: Example 17: Compound 1 (Form C) microsuspension and nanosuspension SC and IM PK study in rat
Type: in vivo, male Sprague Dawley rats
Conditions: for prolonged exposure for (length of the study): 20 mg/animal (~80 mg/kg), micro- and nano-suspensions (Form C), both formulations
Method: The LC-MS methodology and conditions used to analyse Compound 1 in rat plasma samples from the PK study described in Example 17 are given in Table 10.
An aqueous microsuspension of crystalline Compound 1 free form (crystalline Form C) in a 20 mg/mL PVP K30, 10 mg/mL poloxamer 188 and 50 mg/mL mannitol vehicle at a concentration of 200 mg/mL was prepared as follows: • 1) Crystalline Compound 1 (Form C) was jet milled to obtain microparticles (Dv90<10 μm). • 2) Jet milled material was dispersed in 20 mg/ml PVP K30+10 mg/ml Poloxamer 188+50 mg/ml mannitol to obtain a homogeneous suspension. • 3) The suspension was subjected to freeze drying to obtain a freeze-dried powder. • 4) Appropriate amounts of freeze-dried powder (based on assay) were weighed and added to water to obtain a 200 mg/ml suspension. • 5) The mixture was stirred for 5 minutes. • 6) The final dosing formulation was a homogenous white cloudy suspension.
An aqueous nano-suspension of crystalline Compound 1 free form (crystalline Form C) in a 20 mg/mL PVP K30, 10 mg/mL poloxamer 188 and 50 mg/mL mannitol vehicle at a concentration of 200 mg/mL was prepared as follows: • 1) 20 mg/mL crystalline Compound 1 (Form C) was dispersed into a solution of 2 mg/mL PVP K30 1.0 mg/mL poloxamer 188 and 5 mg/mL mannitol • 2) The suspension was subjected to high pressure homogenizer until the size was around 1 μm. • 3) After particle size reduction, the suspension was subjected to freeze drying to obtain a freeze-dried powder. • 4) The freeze-dried powder was reconstituted with water to obtain a 100 mg/mL suspension. • 5) The suspension was wet milled (10:1 0.1 mm zirconium oxide milling beads: Compound 1) at 900 rpm for 600 minutes to reduce particle size to nanosized particles (Dv90<200 nm). • 6) This nanosuspension was subjected to freeze drying to obtain a freeze-dried powder. • 7) Appropriate amounts of freeze-dried powder (based on assay) were weighed and added to water to obtain a 200 mg/ml suspension. • 8) The mixture was stirred for 10 minutes. • 9) The final dosing formulation was a homogenous white cloudy suspension.
Male Sprague Dawley (SD) rats with ~230-250 g body weight (aged 6-8 weeks) were used for the pharmacokinetic study. The animals had free access to food and water. The Compound 1 solution described above was administered via sub-cutaneous or intra-muscular injection to each animal group (n=3) with a dosing volume of 0.1 mL/animal (~0.4 mL/kg) to achieve a 20 mg/animal dose (~80 mg/kg).
At each time point, approximately 150 μL whole blood was collected in a K2EDTA tube via the jugular vein. Blood samples were put on ice and centrifuged at 2000 g for 5 min to obtain a plasma sample within 15 minutes. Plasma samples were stored at approximately −70° C. until analyzed by LC-MS.

With `Cc1nc(N2CCCN(c3ccc(-c4cc(F)ccc4F)cc3)C2=O)sc1S(N)(=O)=O` [Compound 1, 2-(3-(2′,5′-difluoro-[1,1′-biphenyl]-4-yl)-2-oxotetrahydropyrimidin-1(2H)-yl)-4-methylthiazole-5-sulfonamide] the “plasma levels, intramuscular compared with subcutaneous injection” value (20 mg/animal, micro- and nano-suspensions) was “plasma levels were higher than those achieved by these formulations when administered by subcutaneous injection”, the “plasma levels, nanosuspension compared with microsuspension” value (intramuscular, 20 mg/animal) was “nanosuspension provided higher plasma levels than the microsuspension” and the “prolonged exposure for (length of the study)” value (intramuscular) was “at least 600 hours”. For the same compound, the “adverse reactions at the injection sites” value (intramuscular, micro- and nano-suspensions) was “no adverse reactions observed”, the “prolonged exposure for (length of the study)” value (subcutaneous) was “at least 600 hours” and the “plasma levels, nanosuspension compared with microsuspension” value (subcutaneous, 20 mg/animal, throughout the test period) was “nanosuspension provided higher plasma levels than the microsuspension”. The “adverse reactions at the injection sites” value (subcutaneous, micro- and nano-suspensions) was “no adverse reactions observed”.
